Data: US20250375420A1 (ZYLORION HEALTH INC., priority 2022, published 2025)
Like-named read-outs stand apart in the source and are kept apart here.

Tests used:
[1] = Dynamic vapor sorption (DVS) analysis; type: physicochemical
Protocol: Moisture sorption isotherms were collected on a DVS Adventure system from Surface Measurement Systems (London, UK). Sample size was circa 10 mg of solid material. A full sorption and desorption isotherm was recorded by varying the relative humidity from 40-95-0-40% in steps of 10% at a constant temperature of 25° C. Weight equilibration per step was set at dm/dt of 0.002%/min. Afterwards the sample was measured by HT-XRPD.

[2] = tested on: C57BL/6 mice; assay: Head-twitch response (HTR); type: in vivo, mouse; details: i.p.
Protocol: C57BL/6 mice were treated with increasing doses of compounds as indicated via i.p. injection. Mice were placed inside a clear cylinder and video recorded for 10 min immediately after compound administration. Head-twitch was recorded by an individual blinded to treatment as a lateral, rhythmic shaking of the head distinct from grooming or vertical head nod. Data were plotted in GraphPad (v. 9). n≥3 animals per dose. Data are expressed as mean±SEM.

[3] = target: T1, h5HT2a (Homo sapiens, UniProt P28223); assay: cell-based; type: cell-based; parameters: expressed in transfected cells; host or cells: CHO-K1 (AequoScreen line with aequorin in A1; membranes of stably expressing CHO-K1 cells in A3)
T1 sequence (P28223 whole entry): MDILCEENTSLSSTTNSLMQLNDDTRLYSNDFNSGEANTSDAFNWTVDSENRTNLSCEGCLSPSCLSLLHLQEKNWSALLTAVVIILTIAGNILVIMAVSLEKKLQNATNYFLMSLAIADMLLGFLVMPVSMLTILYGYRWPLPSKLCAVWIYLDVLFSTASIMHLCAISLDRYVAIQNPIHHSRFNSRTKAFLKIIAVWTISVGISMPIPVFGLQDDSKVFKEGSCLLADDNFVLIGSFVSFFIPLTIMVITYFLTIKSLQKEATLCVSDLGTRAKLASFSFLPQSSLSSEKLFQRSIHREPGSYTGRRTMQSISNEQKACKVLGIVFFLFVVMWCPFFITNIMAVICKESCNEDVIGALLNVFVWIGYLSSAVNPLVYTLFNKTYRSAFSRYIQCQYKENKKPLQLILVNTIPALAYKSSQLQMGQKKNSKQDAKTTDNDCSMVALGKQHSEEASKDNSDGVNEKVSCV
Protocol: AequoScreen CHO-K1 cells stably-expressing h5HT2a contain an aequorin protein that, when bound to Ca^2+, is able to catalyze the breakdown of the molecule coelenterazine to produce light. Emitted light levels are proportional to endoplasmic reticulum Ca^2+ release. CHO-K1 cells were treated with between 0.1 nM-10 μM of each compound for 1 min before chemiluminescence is recorded. Resulting data are then fit to a three parameter non-linear regression to determine potency (EC50) and efficacy (Emax). Data were fit to a three-parameter non-linear regression in GraphPad (v. 9). n=3-29 independent experiments performed in duplicate or triplicate. Data are expressed as mean±SEM.

[4] = target: T1, h5HT2a; assay: cell-based; type: cell-based; parameters: expressed in transfected cells; host or cells: CHO-K1
Protocol: Compound activity was quantified as βarrestin2 recruitment from CHO-K1 cells expressing h5HT2a and treated with 0.1 nM-10 μM compounds.
CHO-K1 cells express h5HT2a-smBIT and βarrestin2-lgBiT fusion proteins. When h5HT2a and βarrestin2 come into contact with one another the smBIT and IgBIT peptides complement each other to produce a complete NanoBit luciferase enzyme. When complete, the enzyme is able to catalyze the breakdown of the molecule coelenterazine to produce light. Emitted light levels are proportional to interactions between h5HT2a and βarrestin2. CHO-K1 cells were treated with between 0.1 nM-10 μM of each compound for 2 h, during which period chemiluminescence is recorded. Area under the curve data for cumulative chemiluminescence are then fit to a three-parameter non-linear regression to determine potency (EC50) and efficacy (Emax). Data were fit to a three-parameter non-linear regression in GraphPad (v. 9). n=3-13 independent experiments performed in duplicate or triplicate. Data are expressed as mean±SEM.

[5] = tested on: C57BL/6 mice; assay: Elevated plus maze (EPM); type: in vivo, mouse; details: 3 mg/kg i.p., 30 min, preliminary
Protocol: Representative movement traces from Ethovision in male C57BL/6 mice (top, right).
C57BL/6 mice were treated 3 mg/kg of compounds via i.p. injection. Mice are placed in the EPM 30 min after compound administration. The EPM measures 1 m×1 m and the test lasts for 5 min. Total distance travelled, velocity, arm entries, and time in each arm are recorded and analyzed using EthoVision XT (Noldus, v. 17). Data were plotted in GraphPad (v. 9). n=3-5 animals per treatment. Data are expressed as mean±SEM.

[6] = tested on: C57BL/6 mice; assay: Nociception, tail flick latency test (52° C. water); type: in vivo, mouse; details: i.p., increasing doses, 15 min after administration
Protocol: (§1) Compound activity was quantified in C57BL/6 mice for catalepsy (10 min) (top), nociception in the tail flick latency test (15 min) (middle), and body temperature relative to baseline (20 min) (bottom).
(§2) C57BL/6 mice were treated with increasing doses of compounds as indicated via i.p. injection. Tests were as follows: Body temperature is taken before administration of the first dose of compound for baseline. Catalepsy—the bar holding assay, 10 min after compound administration. Mice are placed such that their forepaws clasp a 0.7 cm ring clamp positioned 4.5 cm above the surface of the testing space. The length of time the ring is held is recorded (sec). The trial is ended if the mouse turns its head or body, or makes 3 consecutive escape attempts, to a maximum of 60 sec. Nociception—15 min after compound administration the mouse's tail is placed in 52° C. water. Latency to remove the tail from water is recorded to a maximum of 20 sec. Body temperature—rectal thermometer 20 min after compound administration. Data were plotted in GraphPad (v. 9). n≥6 animals per dose. Data are expressed as mean±SEM.

[7] = tested on: C57BL/6 mice; assay: Open field task (OFT); type: in vivo, mouse; details: i.p., 30 min after administration; significant for movement and velocity, not time in center, at 7 or 10 mg/kg
Protocol: C57BL/6 mice were treated with increasing doses of compounds as indicated via i.p. injection. Mice are placed in the open field 30 min after compound administration. The open field measures 1 m×1 m and the test lasts for 5 min. Total distance travelled, velocity, and time spent in the central quadrant of the field are recorded and analyzed using Etho Vision XT (Noldus, v. 17). Data were plotted in GraphPad (v. 9). n≥4 animals per dose. Data are expressed as mean±SEM.

[8] = tested on: C57BL/6 mice; assay: Body temperature relative to baseline (rectal thermometer); type: in vivo, mouse; details: i.p., increasing doses, 20 min after administration
Protocol: as §1, §2

[9] = tested on: C57BL/6 mice; assay: Catalepsy, bar holding assay; type: in vivo, mouse; details: i.p., increasing doses, 10 min after administration
Protocol: as §1, §2

[10] = target: T1, h5HT2a; assay: biochemical; type: binding; parameters: expressed in transfected cells; host or cells: CHO-K1 (AequoScreen line with aequorin in A1; membranes of stably expressing CHO-K1 cells in A3); details: 1 nM [3H]ketanserin, 0.1 nM-10 μM compound, 2 h
Protocol: CHO-K1 cells stably-expressing h5HT2a are grown, collected, and frozen at −80° C. Cells are thawed as needed and subjected to pressure cavitation using a Dounce homogenizer to rupture cell membranes. Cell membranes are then collected by subjecting cell lysates to high-speed centrifugation at 20,000×g for 30 min at 4° C. Homogenization and centrifugation are repeated to enrich the sample for receptor-containing cell membranes. CHO-K1 cell membranes are the co-incubated with 1 nM [^3H]ketanserin and between 0.1 nM-10 μM of each compound for 2 h. Samples are then pipetted onto filter paper before being rinsed and washed by vacuum filtration three times, dried, and incubated overnight in scintillation fluid. […] Resulting data are then fit to a three-parameter non-linear regression to determine affinity (Ki). […] Data are expressed as mean±SEM.

[11] = βarrestin2 recruitment, CHO-K1 h5HT2a

CCc1cc(/C(C)=N/OCc2ccc(C3CCCCC3)c(C(F)(F)F)c2)ccc1CN1CC(C(=O)O)C1.CCc1cc(/C(C)=N/OCc2ccc(C3CCCCC3)c(C(F)(F)F)c2)ccc1CN1CC(C(=O)O)C1.O=C(O)/C=C/C(=O)O [Crystalline Form A]
hygroscopicity according to the EP hygroscopicity classification ([1]; DVS, 25° C.): moderately hygroscopic | total mass difference between 0-95% RH ([1]; DVS, 25° C.): 3.6% | physical stability after the sorption-desorption cycle (XRPD) ([1]; solid recovered after DVS): physically stable

CCN(CC)C(=O)[C@@H]1C=C2c3cccc4[nH]cc(c34)C[C@H]2N(C)C1 [LSD]
time of peak head-twitch effect post-compound administration ([2]; at several tested doses): around 7 min | Emax (%) ± S.E.M. [3]: 100 ± 9.9% | Emax (%) ± S.E.M. [4]: 100 ± 16%

CNCCc1c[nH]c2cccc(O)c12 [Norpsilocin]
Emax (%) ± S.E.M. ([3]; Ca2+ release, CHO-K1 h5HT2a): 45 ± 14% | Emax (%) ± S.E.M. [4, 11]: 2.9 ± 27%

CN(C)CCc1c[nH]c2cccc(O)c12 [Psilocin]
closed arm time ([5]; p=0.029, unpaired t-test): significantly reduces closed arm time | open arm time ([5]; p=0.12, unpaired t-test): but not open arm time | arm entries [5]: no significant differences in arm entries | overall movement and velocity in EPM [5]: trend toward reduced overall movement and velocity | pain perception (nociception) [6]: significantly reduces pain perception peaking at 1 mg/kg | movement, velocity and time in the center of the open field [7]: dose-dependent decrease in movement, velocity, and time in the center of the open field | body temperature [8]: dose-dependent hypothermia | catalepsy [9]: do not produce catalepsy | head-twitch response ([2]; 0-10 min after administration): time-dependent head-twitch response | Emax ([3]; Ca2+ release, CHO-K1 h5HT2a): 89 ± 11% | Ca2+ release activity (in words) ([3]; h5HT2a-dependent Ca2+ release): potent activator of Ca^2+ release | potency in Ca2+ release assay compared with βarrestin2 recruitment assay ([4]; comparison of the two h5HT2a assays): greater in the Ca^2+ release assay than the βarrestin2 recruitment assay | βarrestin2 recruitment activity (in words) ([4]; h5HT2a-dependent βarrestin2 recruitment): activator of βarrestin2 recruitment | Emax [4, 11]: 89 ± 22%

CN(C)CCc1c[nH]c2cccc(OP(=O)(O)O)c12 [Psilocybin]
Ki [10]: 0.39 µM | catalepsy [9]: do not produce catalepsy | Emax ([3]; Ca2+ release, CHO-K1 h5HT2a): 69 ± 15% | EC50 ([3]; Ca2+ release, CHO-K1 h5HT2a, 0.1 nM-10 μM, 1 min): 1.5 µM | Emax [4, 11]: -34 ± 5.9% | pEC50 ± S.E.M. ([4]; βarrestin2 recruitment, CHO-K1 h5HT2a, 0.1 nM-10 μM, 2 h, AUC): Not Converged
